Measured values reported in US11440898B2, “Isoquinoline compounds, methods for their preparation, and therapeutic uses thereof in conditions associated with the alteration of the activity of beta galactosidase” (Minoryx Therapeutics S.L., priority 2016, dated 2022).

Molecular target: T1, mutated beta-galactosidase (p.R60H canine GLB1) in GM11473 fibroblasts (Canis lupus familiaris, UniProt Q9TRY9, R60H)
T1 construct: host or cells: GM11473 canine GM1 gangliosidosis fibroblasts
T1 sequence (Q9TRY9 30-668 R60H): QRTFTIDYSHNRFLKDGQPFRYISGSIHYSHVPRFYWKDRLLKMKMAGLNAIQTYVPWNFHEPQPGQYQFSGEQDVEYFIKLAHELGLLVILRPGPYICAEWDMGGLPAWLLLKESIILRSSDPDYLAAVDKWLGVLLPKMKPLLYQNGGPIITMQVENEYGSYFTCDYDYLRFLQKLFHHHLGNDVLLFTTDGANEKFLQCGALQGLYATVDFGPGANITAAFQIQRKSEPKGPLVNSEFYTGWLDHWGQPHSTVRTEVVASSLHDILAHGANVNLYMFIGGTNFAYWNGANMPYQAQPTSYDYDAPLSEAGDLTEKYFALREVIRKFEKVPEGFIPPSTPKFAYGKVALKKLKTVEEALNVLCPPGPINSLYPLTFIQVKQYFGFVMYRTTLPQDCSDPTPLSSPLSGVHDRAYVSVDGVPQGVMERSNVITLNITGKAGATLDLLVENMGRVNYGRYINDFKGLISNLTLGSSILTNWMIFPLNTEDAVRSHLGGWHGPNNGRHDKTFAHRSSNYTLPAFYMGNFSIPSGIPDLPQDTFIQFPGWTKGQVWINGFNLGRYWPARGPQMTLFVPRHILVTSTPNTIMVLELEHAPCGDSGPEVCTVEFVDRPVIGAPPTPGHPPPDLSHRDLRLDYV
Experiment: Enhancement of β-galactosidase activity measured in GM1 fibroblasts (GM11473), 4-MU-β-D-galactopyranoside substrate
Format: cell-based
Set-up: key: Increase in comparison with non-treated of >2.5 fold is shown as A; Increase in comparison with non-treated of >1.7-2.5 fold is shown as B; Increase in comparison with non-treated of 1.2-1.7 fold is shown as C; D means that no increase compared with non-treated cells was detected in this method
Settings: increase in β-galactosidase enzyme activity vs non-treated cells, concentrations between 6 and 50 μM, 4 days incubation
Method: The capacity of the Compounds of the Disclosure to enhance mutated beta-galactosidase activity levels in GM1 fibroblasts was assayed as follows.
Fibroblasts homozygous for a GM1 gangliosidosis missense mutation (GM11473) (canine fibroblasts homozygous for the GM1 gangliosidosis missense mutation p.R60H equivalent to human p.R59H mutation) were purchased from Coriell Institute for Medical Research (Camden, N.J., USA).
Fibroblasts were seeded at 4×10^4 cells per well in 12-well cell culture plates in Dulbecco's Modified Eagle's Media (DMEM) supplemented with 10% of fetal bovine serum (FBS), 1% penicillin/streptomycin (P/S) (Thermo Fisher Scientific, Waltham, Mass., USA) and incubated at 37° C., 5% CO2 overnight for cell attachment. Subsequently, cells were incubated in the absence or presence of the compounds at the desired concentration for 4 days. After incubation, cells were washed twice with phosphate-buffered saline (“PBS”) and detached using Trypsin-EDTA solution (Sigma Aldrich, St. Louis, Mo., USA) to prepare cell pellets. The pellets were stored at −80° C. until activity assays were performed.
β-Galactosidase activity in cell lysates was measured by using 4-Methylumbelliferyl-β-D-galactopyranoside substrate (Sigma Aldrich, St. Louis, Mo., USA). Briefly, lysates were resuspended in 200 μL of 0.9% NaCl containing 0.01% triton X-100 lysis buffer to promote membrane disruption. The cell suspension was sonicated and centrifuged to remove insoluble materials. Then, lysates were mixed with 4-MU-β-D-galactopyranoside in 100 mM citrate buffer (pH=4) and 100 mM NaCl for 60 min at 37° C. The reaction was terminated by adding 100 mM glycine-NaOH buffer (pH=10.7). The liberated 4-MU was measured on a GloMax Discover plate reader (Promega, Madison, Wis., USA) with excitation at 340 nm and emission at 460 nm. Protein quantification was determined using Pierce BCA Protein Assay Kit (Thermo Fisher Scientific, Waltham, Mass., USA). Measurements were interpolated in a 4-MU standard curve and normalized by protein quantity. Enzyme activities were expressed in treated cells as X-fold increase in comparison with non-treated cells (X=1 represents no enhancement).
The capacity of the Compounds of the Disclosure to produce an increase in β-galactosidase enzyme activity in canine GM1 fibroblasts bearing p.R60H canine GLB1 mutation at concentrations between 6 and 50 μM is denoted as follows: • Increase in comparison with non-treated of >2.5 fold is shown as A. • Increase in comparison with non-treated of >1.7-2.5 fold is shown as B. • Increase in comparison with non-treated of 1.2-1.7 fold is shown as C. • D means that no increase compared with non-treated cells was detected in this method. • ND means “not determined.”

SMILES | Activity in GM11473 fibroblasts
O=C(NCc1ccc2nsnc2c1)c1cc(Nc2nccc3ccc(Cl)cc23)ccn1 [Example 13, N-(benzo[c][1,2,5]thiadiazol-5-ylmethyl)-4-((7-chloroisoquinolin-1-yl)amino)picolinamide] | D
O=C(NC1CCc2ccccc2C1)c1cc(Nc2nccc3ccc(Cl)cc23)ccn1 (centres unmarked) [Example 14, 4-((7-Chloroisoquinolin-1-yl)amino)-N-(1,2,3,4-tetrahydronaphthalen-2-yl)picolinamide] | B (Increase in comparison with non-treated of >1.7-2.5 fold is shown as B)
O=C(NCc1ccc2c(c1)CCO2)c1cc(Nc2nccc3ccc(Cl)cc23)ccn1 [Example 16, 4-((7-Chloroisoquinolin-1-yl)amino)-N-((2,3-dihydrobenzofuran-5-yl)methyl)picolinamide] | C (Increase in comparison with non-treated of 1.2-1.7 fold is shown as C)
O=C(NCC1CCc2ccccc2C1)c1ccc(Nc2nccc3ccc(Cl)cc23)cn1 (centres unmarked) [Example 41, 5-((7-Chloroisoquinolin-1-yl)amino)-N-((1,2,3,4-tetrahydronaphthalen-2-yl)methyl)picolinamide] | B (Increase in comparison with non-treated of >1.7-2.5 fold is shown as B)
COc1ccc(CNC(=O)c2cc(Nc3nccc4ccc(Cl)cc34)ccn2)cc1 [Example 10, 4-((7-Chloroisoquinolin-1-yl)amino)-N-(4-methoxybenzyl)picolinamide] | D
N#Cc1ccc2ccnc(Nc3ccc(C(=O)NC4CCc5ccccc5C4)nc3)c2c1 (centres unmarked) [Example 48, 5-((7-Cyanoisoquinolin-1-yl)amino)-N-(1,2,3,4-tetrahydronaphthalen-2-yl)picolinamide] | A (Increase in comparison with non-treated of >2.5 fold is shown as A)
O=C(NCc1ccc2c(c1)OCCO2)c1cc(Nc2nccc3ccc(Cl)cc23)ccn1 [Example 8, 4-((7-Chloroisoquinolin-1-yl)amino)-N-((2,3-dihydrobenzo[b][1,4]dioxin-6-yl)methyl)picolinamide] | B (Increase in comparison with non-treated of >1.7-2.5 fold is shown as B)
O=C(NCc1ccc2c(c1)OCO2)c1cc(Nc2nccc3ccc(Cl)cc23)ccn1 [Example 17, N-(benzo[d][1,3]dioxol-5-ylmethyl)-4-((7-chloroisoquinolin-1-yl)amino)picolinamide] | B (Increase in comparison with non-treated of >1.7-2.5 fold is shown as B)
O=C(NCc1ccc2c(c1)CCCO2)c1cc(Nc2nccc3ccc(Cl)cc23)ccn1 [Example 19, 4-((7-Chloroisoquinolin-1-yl)amino)-N-(chroman-6-ylmethyl)picolinamide] | C (Increase in comparison with non-treated of 1.2-1.7 fold is shown as C)
COc1ccc(CNC(=O)c2cc(Nc3nccc4ccc(Cl)cc34)ccn2)cc1OC [Example 12, 4-((7-Chloroisoquinolin-1-yl)amino)-N-(3,4-dimethoxybenzyl)picolinamide] | C (Increase in comparison with non-treated of 1.2-1.7 fold is shown as C)
N#Cc1ccc2ccnc(Nc3ccc(C(=O)NCc4ccc5nsnc5c4)nc3)c2c1 [Example 50, N-(benzo[c][1,2,5]thiadiazol-5-ylmethyl)-5-((7-cyanoisoquinolin-1-yl)amino)picolinamide] | C (Increase in comparison with non-treated of 1.2-1.7 fold is shown as C)
O=C(NCc1ccc2c(c1)OCO2)c1ccc(Nc2nccc3ccc(Cl)cc23)cn1 [Example 37, N-(benzo[d][1,3]dioxol-5-ylmethyl)-5-((7-chloroisoquinolin-1-yl)amino)picolinamide] | D
O=S(=O)(NCc1ccc2c(c1)OCCO2)c1ccc(Nc2nccc3ccc(Cl)cc23)cc1 [Example 75, 4-((7-chloroisoquinolin-1-yl)amino)-N-((2,3-dihydrobenzo[b][1,4]dioxin-6-yl)methyl)benzenesulfonamide] | B (Increase in comparison with non-treated of >1.7-2.5 fold is shown as B)
COc1ccc2ccnc(Nc3ccnc(C(=O)NCc4ccccc4)c3)c2c1 [Example 26, N-benzyl-4-((7-methoxyisoquinolin-1-yl)amino)picolinamide] | C (Increase in comparison with non-treated of 1.2-1.7 fold is shown as C)
O=S(=O)(NCC1CCc2ccccc2C1)c1ccc(Nc2nccc3ccc(Cl)cc23)cc1 (centres unmarked) [Example 78, 4-((7-Chloroisoquinolin-1-yl)amino)-N-((1,2,3,4-tetrahydronaphthalen-2-yl)methyl)benzenesulfonamide] | A (Increase in comparison with non-treated of >2.5 fold is shown as A)
O=C(NCc1ccc2c(c1)OCO2)c1ccc(Nc2nccc3ccc(Cl)cc23)nc1 [Example 62, N-(benzo[d][1,3]dioxol-5-ylmethyl)-6-((7-chloroisoquinolin-1-yl)amino)nicotinamide] | D
O=S(=O)(NC1CCc2ccccc2C1)c1cccc(Nc2nccc3ccc(Cl)cc23)c1 (centres unmarked) [Example 70, 3-((7-Chloroisoquinolin-1-yl)amino)-N-(1,2,3,4-tetrahydronaphthalen-2-yl)benzenesulfonamide] | C (Increase in comparison with non-treated of 1.2-1.7 fold is shown as C)
